{"source": "patent US11800867B2", "about": "“Methods of repelling biting arthropods, reducing pathogen spread and treating arthropod infestation” (priority 2016, dated 2023)", "type_in_all_cases": "in vivo", "key": {"[1]": {"tested_on": "mosquitoes (Aedes aegypti and Culex)", "experiment": "Treated filter paper knockdown (KD) and mortality trial (Example 4), statements on both mosquito species", "method": "(§1) A laboratory trial was conducted to assess the efficacy of nootkatone applied to filter paper against aphids (Schizaphis gramium), dust mites (Dermatophagoides sp.), termites (Reticulitermes flavipes), deer ticks (Ixodes scapularis), biting midges (Culicoides sp.), fire ants (Solenopsis invicta), and mosquitoes (Aedes aegypti and Culex), in terms of knockdown (KD) and mortality. One concentration (1% in ethanol) of nootkatone was assessed for most species, but three concentrations (0.25%, 0.5%, and 1% in ethanol) were assessed for mosquitoes. A negative control group, consisting of filter paper treated with ethanol, was also assessed for comparison purposes for each species.\n(§2) Test systems were introduced to treated filter paper, allowed to dry, and then introduced into treatment chamber, where treated arthropods were monitored at intervals up to 72 hours. If 100% mortality was obtained prior to 72 hours, the individual study was halted.\nMidges and mosquitoes—5 replicates of 10 insects per treatment were tested. Inverted 10 ounce (295 ml) clear plastic cups with a 0.5 inch (1.27 cm) hole burned into the center of the bottom, and with the sides coated with Fluon® was used at the treatment containers. The bottoms of the containers consisted of Petri dish lids 3.54 inches (9.0 cm) in diameter lined with a treated filter paper circle the same diameter. The cup was placed over the filter paper in the lid and both were secured in place using 2 rubber bands. The insects were introduced through the hole in the cup, and a plastic disc was placed over the opening to prevent escapes.\n(§3) Readings were discontinued if treated mortality reaches […], or control mortality exceeds 20%."}, "[2]": {"tested_on": "termites (Reticulitermes flavipes)", "experiment": "Treated filter paper knockdown (KD) and mortality trial (Example 4)", "conditions": "Nootkatone 1% in ethanol on filter paper", "method": "as §1, §2\nTermites—3 replicates of 10 termites were tested per treatment. One long glass tube with screened ends (to provide ventilation) was used for each test container. Test containers were placed into a larger container to prevent escapes, and were kept in darkness and at high humidity for the duration of the experiment. Filter papers were cut into strips and fitted inside the glass tubes. Two paper strips were pushed end to end to form one continuous strip, leaving a 2 mm gap running the entire length of the tube for viewing termite activity.\nas §3"}, "[3]": {"tested_on": "fire ants (Solenopsis invicta)", "experiment": "Treated filter paper knockdown (KD) and mortality trial (Example 4)", "conditions": "Nootkatone 1% in ethanol on filter paper", "method": "as §1, §2\nFire ants—5 replicates of 10 insects were tested per treatment. A Petri dish lid 3.54 inches (9 cm) in diameter was inverted and serve as the substrate for a 2.75 inch (7 cm) treated filter paper circle. The small Petri dish bottom was inverted over the paper and had its sides treated with Fluon® to prevent climbing and force exposure with the filter paper. The entire Petri dish was enclosed with two rubber bands.\nas §3"}, "[4]": {"tested_on": "deer ticks (Ixodes scapularis)", "experiment": "Treated filter paper knockdown (KD) and mortality trial (Example 4)", "conditions": "Nootkatone 1% in ethanol on filter paper", "method": "as §1, §2\n(§4) Deer Ticks and Dust mites—5 replicates of 10 ticks or 35 dust mites were tested per treatment. Envelopes made from treated 2.5 inch (6.35 cm) filter paper squares served as the containers. After the ticks or dust mites were placed inside the envelopes, and the openings were sealed using small binder clips.\nas §3"}, "[5]": {"tested_on": "dust mites (Dermatophagoides sp.)", "experiment": "Treated filter paper knockdown (KD) and mortality trial (Example 4)", "conditions": "Nootkatone 1% in ethanol on filter paper", "method": "as §1, §2, §4, §3"}}, "note": "“And” between values parts separate entries of the source, which are not always exact repeats. Identical values can stand only once."}
{"smiles": "C=C(C)[C@@H]1CCC2=CC(=O)C[C@@H](C)[C@]2(C)C1", "note": "[Nootkatone, nootkatone]", "values": [{"measurement": "Mortality in mosquitoes", "setting": "[1]; Nootkatone 0.25% in ethanol on filter paper, the lowest tested concentration", "result": "less than 80%"}, {"measurement": "Time required for greater than 90% killing", "setting": "[1]; Nootkatone 1% in ethanol on filter paper", "result": 24, "unit": "h"}, {"measurement": "Affected (knockdown+mortality) mosquitoes in both species", "setting": "[1]; Nootkatone 1% in ethanol on filter paper, by 8 hours post treatment", "result": "at least 80%"}, {"measurement": "Mortality in mosquitoes during the experimental duration", "setting": "[1]; Nootkatone at 1% concentration in ethanol on filter paper, both mosquito species", "result": "94-100%"}, {"measurement": "Mortality in both mosquito species", "setting": "[1]; nootkatone 0.5% in ethanol on filter paper, by 72 hours post treatment", "result": "82-95%"}, {"measurement": "Time required for greater than 90% killing", "setting": "[2]", "result": 72, "unit": "h"}, {"measurement": "Means Affected", "setting": "[2]; 30 minutes post introduction", "result": 0.0, "unit": "%"}, {"measurement": "Means Dead", "setting": "[2]; 30 minutes post introduction", "result": 0.0, "unit": "%"}, {"measurement": "Means KD", "setting": "[2]; 30 minutes post introduction", "result": 0.0, "unit": "%"}, {"measurement": "Means Affected", "setting": "[2]; 1 hour post introduction", "result": 0.0, "unit": "%"}, {"measurement": "Means Dead", "setting": "[2]; 1 hour post introduction", "result": 0.0, "unit": "%"}, {"measurement": "Means KD", "setting": "[2]; 1 hour post introduction", "result": 0.0, "unit": "%"}, {"measurement": "Means Affected", "setting": "[2]; 4 hours post introduction", "result": 0.0, "unit": "%"}, {"measurement": "Means Dead", "setting": "[2]; 4 hours post introduction", "result": 0.0, "unit": "%"}, {"measurement": "Means KD", "setting": "[2]; 4 hours post introduction", "result": 0.0, "unit": "%"}, {"measurement": "Means Affected", "setting": "[2]; 24 hours post introduction", "result": 83.3, "unit": "%"}, {"measurement": "Means Dead", "setting": "[2]; 24 hours post introduction", "result": 0.0, "unit": "%"}, {"measurement": "Means KD", "setting": "[2]; 24 hours post introduction", "result": 83.3, "unit": "%"}, {"measurement": "Means Affected", "setting": "[2]; 48 hours post introduction", "result": 86.7, "unit": "%"}, {"measurement": "Means Dead", "setting": "[2]; 48 hours post introduction", "result": 86.7, "unit": "%"}, {"measurement": "Means KD", "setting": "[2]; 48 hours post introduction", "result": 0.0, "unit": "%"}, {"measurement": "Means Affected", "setting": "[2]; 72 hours post introduction", "result": 90.0, "unit": "%"}, {"measurement": "Means Dead", "setting": "[2]; 72 hours post introduction", "result": 90, "unit": "%"}, {"measurement": "Means KD", "setting": "[2]; 72 hours post introduction", "result": 0.0, "unit": "%"}, {"measurement": "Time required for greater than 90% killing", "setting": "[3]", "result": 24, "unit": "h"}, {"measurement": "Means Affected", "setting": "[3]; 30 minutes post introduction", "result": 0.0, "unit": "%"}, {"measurement": "Means Dead", "setting": "[3]; 30 minutes post introduction", "result": 0.0, "unit": "%"}, {"measurement": "Means KD", "setting": "[3]; 30 minutes post introduction", "result": 0.0, "unit": "%"}, {"measurement": "Means Affected", "setting": "[3]; 1 hour post introduction", "result": 0.0, "unit": "%"}, {"measurement": "Means Dead", "setting": "[3]; 1 hour post introduction", "result": 0.0, "unit": "%"}, {"measurement": "Means KD", "setting": "[3]; 1 hour post introduction", "result": 0.0, "unit": "%"}, {"measurement": "Means Affected", "setting": "[3]; 4 hours post introduction", "result": 22.0, "unit": "%"}, {"measurement": "Means Dead", "setting": "[3]; 4 hours post introduction", "result": 0.0, "unit": "%"}, {"measurement": "Means KD", "setting": "[3]; 4 hours post introduction", "result": 22.0, "unit": "%"}, {"measurement": "Means Affected", "setting": "[3]; 24 hours post introduction", "result": 100.0, "unit": "%"}, {"measurement": "Means Dead", "setting": "[3]; 24 hours post introduction", "result": 100, "unit": "%"}, {"measurement": "Means KD", "setting": "[3]; 24 hours post introduction", "result": 0.0, "unit": "%"}, {"measurement": "Means Dead", "setting": "[3]; 24 hours post introduction, listed as nootkatone", "result": 100, "unit": "%"}, {"measurement": "Time required for greater than 90% killing", "setting": "[4]", "result": 72, "unit": "h"}, {"measurement": "Means Affected", "setting": "[4]; 24 hours post introduction", "result": 100.0, "unit": "%"}, {"measurement": "Means Dead", "setting": "[4]; 24 hours post introduction", "result": 36.0, "unit": "%"}, {"measurement": "Means KD", "setting": "[4]; 24 hours post introduction", "result": 62.0, "unit": "%"}, {"measurement": "Means Affected", "setting": "[4]; 48 hours post introduction", "result": 100.0, "unit": "%"}, {"measurement": "Means Dead", "setting": "[4]; 48 hours post introduction", "result": 82.0, "unit": "%"}, {"measurement": "Means KD", "setting": "[4]; 48 hours post introduction", "result": 16.0, "unit": "%"}, {"measurement": "Means Affected", "setting": "[4]; 72 hours post introduction", "result": 100.0, "unit": "%"}, {"measurement": "Means Dead", "setting": "[4]; 72 hours post introduction", "result": "100% and 98%"}, {"measurement": "Means KD", "setting": "[4]; 72 hours post introduction", "result": 0.0, "unit": "%"}, {"measurement": "Time required for greater than 90% killing", "setting": "[5]", "result": 72, "unit": "h"}, {"measurement": "Means Affected", "setting": "[5]; 72 hours post introduction", "result": 100.0, "unit": "%"}, {"measurement": "Means Dead", "setting": "[5]; 72 hours post introduction", "result": 100, "unit": "%"}, {"measurement": "Means KD", "setting": "[5]; 72 hours post introduction", "result": 0.0, "unit": "%"}]}
